For one experiment, the target named is T1, Human CD73 (Homo sapiens, UniProt P21589).
T1 construct: purchased R&D Systems; host or cells: CHO cells
T1 sequence (P21589 27-549): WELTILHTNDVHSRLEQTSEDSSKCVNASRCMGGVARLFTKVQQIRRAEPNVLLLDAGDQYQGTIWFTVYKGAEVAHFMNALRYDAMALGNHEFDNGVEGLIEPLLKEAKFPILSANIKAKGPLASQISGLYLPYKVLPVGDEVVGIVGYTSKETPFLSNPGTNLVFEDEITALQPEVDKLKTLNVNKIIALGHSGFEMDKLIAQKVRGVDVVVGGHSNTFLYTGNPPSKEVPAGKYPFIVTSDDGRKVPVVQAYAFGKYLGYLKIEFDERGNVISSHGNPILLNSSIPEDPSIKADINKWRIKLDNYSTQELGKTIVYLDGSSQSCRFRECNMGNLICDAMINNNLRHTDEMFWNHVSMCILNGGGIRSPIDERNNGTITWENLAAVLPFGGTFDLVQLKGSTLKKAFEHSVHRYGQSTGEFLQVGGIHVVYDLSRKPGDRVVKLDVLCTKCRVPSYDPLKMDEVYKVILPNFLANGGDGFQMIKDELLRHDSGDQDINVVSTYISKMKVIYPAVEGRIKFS
The experiment can be described thus: CD73 Enzyme Assay. In kind it is biochemical. The settings on record: 0.25 nM hCD73, 25 μM AMP, kinetic read at 360 nm; read-out: CD73 Enzyme Assay IC50.

Experiment [1] concerns the target T2, CD73 on U138 human neuroglioma cells (Homo sapiens, UniProt P21589).
T2 construct: U138 cells were obtained from ATCC and cultured in DMEM with 10% FBS; host or cells: U138 human neuroglioma cells
T2 sequence (P21589 27-549): T1 sequence (P21589 27-549)
The experiment can be described thus: CD73 Cell-Based Assay. The settings on record: U138 cells, AMP substrate, 2 hours at 37° C., inorganic phosphate by malachite green. As to the method: U138 human neuroglioma cells were used in these experiments. U138 cells were obtained from ATCC and cultured in DMEM with 10% FBS. 2500 cells were seeded into 96-well plate with 100 μL of media the day before the experiment. Cells were washed twice with 200 μL of assay buffer (20 mM HEPES, pH 7.4; 137 mM NaCl; 5.4 mM KCl; 1.3 mM CaCl2); 4.2 mM NaHCO3; 1 mg/mL glucose) to remove residual inorganic phosphate. After washing, 100 μL of buffer was added to each well, then 100 μL of a mixture of AMP substrate (200 μM) and diluted compound was added to each well. The cells were incubated at 37° C. (with 5% CO2) for 2 hours. 50 μL of supernatant was transferred to a 96-well assay plate and the concentration of inorganic phosphate was determined using malachite green reagent (R&D System; Cat: DY996).

SMILES strings stand for the structures.

On to `C[C@@H](Nc1nc(Cl)nc2c1ccn2[C@@H]1O[C@H](CS(=O)(=O)CP(=O)(O)O)[C@@H](O)[C@H]1O)c1ccc(F)cc1` [Compound 167, [(2S,3S,4R,5R)-5-[2-chloro-4-[[(1R)-1-(4-fluorophenyl)ethyl]-amino]pyrrolo[2,3-d]-pyrimidin-7-yl]-3,4-dihydroxy-tetrahydro-furan-2-yl]methyl-sulfonylmethylphos-phonic acid], for which the IC50 (on Human CD73; in experiment [1]) was below 0.01 µM throughout.
Consider `O=P(O)(O)CP(=O)(O)OC[C@H]1O[C@@H](n2ccc3c(NC4CCCC4)nc(Cl)nc32)[C@H](O)[C@@H]1O` [Compound 229], for which the half-inhibitory concentration (IC50) (on Human CD73; in experiment [1]) was below 0.01 µM in each case.
As to `N#Cc1nc(NC2CC(F)(F)C2)c2cnn([C@@H]3O[C@H](CS(=O)(=O)CP(=O)(O)O)[C@@H](O)[C@H]3O)c2n1` [Compound 292, [(2S,3S,4R,5R)-5-[6-cyano-4-[(3,3-difluoro-difluorocyclobutyl)-amino]pyrazolo[3,4-d]-pyrimidin-1-yl]-3,4-dihydroxy-tetrahydro-furan-2-yl]methyl-sulfonylmethylphos-phonic acid], the IC50 (on Human CD73; in experiment [1]) was below 0.01 µM throughout.
With `COC(=O)OCOP(=O)(O)COC[C@H]1O[C@@H](n2ccc3c(NC4CCCC4)nc(Cl)nc32)[C@H](O)[C@@H]1O` [Compound 202, [(2R,3S,4R,5R)-5-[2-chloro-4-(cyclopentyl-amino)pyrrolo[2,3-d]-pyrimidin-7-yl]-3,4-dihydroxy-tetrahydro-furan-2-yl]methoxy-methyl-(methoxy-carbonyloxymethoxy)-phosphinic acid], the IC50 (at Human CD73; in experiment [1]) was 0.01 to 0.1 µM in each case.
As for `O=P(O)(O)COC[C@H]1O[C@@H](n2ccc3c(N4CCC4)nc(Cl)nc32)[C@H](O)[C@@H]1O` [Compound 112, [(2R,3S,4R,5R)-5-[4-(azetidin-1-yl)-2-chloro-pyrrolo[2,3-d]-pyrimidin-7-yl]-3,4-dihydroxy-tetrahydro-furan-2-yl]methoxy-methylphosphonic acid], the IC50 (at Human CD73; in experiment [1]) was 0.01 to 0.1 µM in each case.
As for `O=P(O)(O)COC[C@H]1O[C@@H](n2ccc3c(NC4CCCC4)nc(I)nc32)[C@H](O)[C@@H]1O` [Compound 230, [(2R,3S,4R,5R)-5-[4-(cyclopentylamino)-2-iodo-pyrrolo[2,3-d]-pyrimidin-7-yl]-3,4-dihydroxy-tetrahydro-furan-2-yl]methoxy-methylphosphonic acid], the 50% inhibitory concentration (IC50) (at Human CD73; in experiment [1]) was below 0.01 µM each time.
For the molecule `N#Cc1nc(NCc2ccccc2)c2ncn([C@@H]3O[C@H](COCP(=O)(O)O)[C@@H](O)[C@H]3O)c2n1` [Compound 4, [(2R,3S,4R,5R)-5-[6-(benzylamino)-2-cyano-purin-9-yl]-3,4-dihydroxy-tetrahydrofuran-2-yl]methoxymethyl-phosphonic acid], the IC50 (commonly the concentration that inhibits the measured activity by half) at Human CD73 was below 0.01 µM; in experiment [1], 0.1 to 1 µM.
Turning to `C[C@H](Nc1nc(Cl)nc2c1ccn2[C@@H]1O[C@H](COCP(=O)(O)O)[C@@H](O)[C@H]1O)c1ccc(C2CC2)cc1` [Compound 198, [(2R,3S,4R,5R)-5-[2-chloro-4-[[(1S)-1-(4-cyclopropylphenyl)-ethyl]amino]pyrrolo-[2,3-d]pyrimidin-7-yl]-3,4-dihydroxy-tetra-hydrofuran-2-yl]-methoxymethylphos-phonic acid], the IC50 (at Human CD73; in experiment [1]) was below 0.01 µM throughout.
For `O=P(O)(O)COC[C@H]1O[C@@H](n2ccc3c(Oc4ccccc4)nc(Cl)nc32)[C@H](O)[C@@H]1O` [Compound 206, [(2R,3S,4R,5R)-5-(2-chloro-4-phenoxy-pyrrolo[2,3-d]-pyrimidin-7-yl)-3,4-dihydroxy-tetrahydro-furan-2-yl]methoxy-methylphosphonic acid], the IC50 at Human CD73 was 0.01 to 0.1 µM; in experiment [1], above 1 µM.
The corresponding values for `N#Cc1nc(NC2CCCC2)c2ccn([C@@H]3O[C@H](COCP(=O)(O)O)[C@@H](O)[C@H]3O)c2n1` [Compound 71, [(2R,3S,4R,5R)-5-[2-cyano-4-(cyclopentyl-amino)pyrrolo[2,3-d]-pyrimidin-7-yl]-3,4-dihydroxy-tetrahydro-furan-2-yl]methoxy-methylphosphonic acid] are below 0.01 µM and below 0.01 µM.
Turning to `O=P(O)(O)COC[C@H]1O[C@@H](n2ccc3c(NC4CC(F)(F)C4)nc(Cl)nc32)[C@H](O)[C@@H]1O` [Compound 83, [(2R,3S,4R,5R)-5-[2-chloro-4-[(3,3-difluoro-cyclobutyl)amino]-pyrrolo[2,3-d]-pyrimidin-7-yl]-3,4-dihydroxy-tetrahydro-furan-2-yl]methoxy-methylphosphonic acid], the IC50 (on Human CD73; in experiment [1]) was below 0.01 µM throughout.
For `C[C@H](Nc1nc(Cl)nc2c1ccn2[C@@H]1O[C@H](COCP(=O)(O)O)[C@@H](O)[C@H]1O)c1cccc(F)c1` [Compound 74, [(2R,3S,4R,5R)-5-[2-chloro-4-[[(1S)-1-(3-fluorophenyl)ethyl]-amino]pyrrolo[2,3-d]-pyrimidin-7-yl]-3,4-dihydroxy-tetrahydro-furan-2-yl]methoxy-methylphosphonic acid], the IC50 was below 0.01 µM at Human CD73 and 0.01 to 0.1 µM in experiment [1].
The matching figures for `C[C@H](c1ccccc1)N(C)c1nc(Cl)nc2c1ccn2[C@@H]1O[C@H](COCP(=O)(OCOC(=O)C(C)(C)C)OCOC(=O)C(C)(C)C)[C@@H](O)[C@H]1O` [Compound 133, ((((((2R,3S,4R,5R)-5-(2-chloro-4-(methyl((R)-1-phenylethyl)amino)-7H-pyrrolo[2,3-d]pyrimidin-7-yl)-3,4-dihydroxytetrahydrofuran-2-yl)methoxy)methyl)phosphoryl)bis(oxy))bis(methylene) bis(2,2-dimethylpropanoate)]: above 1 µM and above 1 µM.
The matching figures for `C[C@H](Nc1nc(C#N)nc2c1ccn2[C@@H]1O[C@H](COCP(=O)(O)O)[C@@H](O)[C@H]1O)c1ccc(F)cn1` [Compound 146]: 0.1 to 1 µM and 0.01 to 0.1 µM.
For `CC(C)(O)C#Cc1nc(NC2CCCC2)c2ccn([C@@H]3O[C@H](COCP(=O)(O)O)[C@@H](O)[C@H]3O)c2n1` [Compound 272, [(2R,3S,4R,5R)-5-[4-(cyclopentylamino)-2-(3-hydroxy-3-methyl-but-1-ynyl)pyrrolo[2,3-d]pyrimidin-7-yl]-3,4-dihydroxy-tetrahydro-furan-2-yl]methoxy-methylphosphonic acid], the IC50 on Human CD73 is 0.01 to 0.1 µM; in experiment [1], below 0.01 µM.
With `O=P(O)(O)CS(=O)(=O)C[C@H]1O[C@@H](n2ccc3c(NC4CCCC4)nc(Cl)nc32)[C@H](O)[C@@H]1O` [Compound 155, (((((2S,3S,4R,5R)-5-(2-chloro-4-(cyclopentylamino)-7H-pyrrolo[2,3-d]pyrimidin-7-yl)-3,4-dihydroxytetrahydrofuran-2-yl)methyl)sulfonyl)methyl)phosphonic acid], the IC50 (on Human CD73; in experiment [1]) was below 0.01 µM throughout.
As to `N#Cc1nc(NC2CC3CC3C2)c2cnn([C@@H]3O[C@H](CS(=O)(=O)CP(=O)(O)O)[C@@H](O)[C@H]3O)c2n1` (stereo partly drawn) [Compound 300, [(2S,3S,4R,5R)-5-[4-(3-bicyclo[3.1.0]-hexanylamino)-6-cyano-pyrazolo[3,4-d]-pyrimidin-1-yl]-3,4-dihydroxy-tetrahydro-furan-2-yl]methyl-sulfonylmethylphos-phonic acid], the IC50 at Human CD73 was 0.01 to 0.1 µM; in experiment [1] it was below 0.01 µM.

These data come from patent publication US11591355B2 (Peloton Therapeutics, Inc., priority 2017, dated 2023).
